{
  "source": "ChEMBL document CHEMBL1201862",
  "about": "“PubChem BioAssay data set” (2004)",
  "test_in_all_cases": "NCI anticancer screen, dose series, 48 h",
  "key": {"MDA-MB-435": {"system": "MDA-MB-435"}, "HCC 2998": {"system": "HCC 2998"}, "HCT-116": {"system": "HCT-116"}, "HCT-15": {"system": "HCT-15"}, "SW-620": {"system": "SW-620"}, "NCI-H522": {"system": "NCI-H522"}, "UACC-62": {"system": "UACC-62"}, "NCI-H226": {"system": "NCI-H226"}, "SF-268": {"system": "SF-268"}, "786-0": {"system": "786-0"}, "HOP-92": {"system": "HOP-92"}, "SR": {"system": "SR"}, "LOX IMVI": {"system": "LOX IMVI"}, "DU-145": {"system": "DU-145"}, "OVCAR-4": {"system": "OVCAR-4"}, "OVCAR-8": {"system": "OVCAR-8"}, "SK-MEL-2": {"system": "SK-MEL-2"}, "COLO 205": {"system": "COLO 205"}, "SK-MEL-5": {"system": "SK-MEL-5"}, "ACHN": {"system": "ACHN"}, "MOLT-4": {"system": "MOLT-4"}, "RXF 393": {"system": "RXF 393"}, "A549": {"system": "A549"}, "K562": {"system": "K562"}, "NCI-H460": {"system": "NCI-H460"}, "A498": {"system": "A498"}, "SF-539": {"system": "SF-539"}, "PC-3": {"system": "PC-3"}, "SNB-75": {"system": "SNB-75"}, "UACC-257": {"system": "UACC-257"}, "SNB-19": {"system": "SNB-19"}, "OVCAR-5": {"system": "OVCAR-5"}, "EKVX": {"system": "EKVX"}, "M14": {"system": "M14"}, "Hs-578T": {"system": "Hs-578T"}, "BT-549": {"system": "BT-549"}, "NCI-H23": {"system": "NCI-H23"}, "Malme-3M": {"system": "Malme-3M"}, "UO-31": {"system": "UO-31"}, "MDA-N": {"system": "MDA-N"}, "KM12": {"system": "KM12"}, "MCF7": {"system": "MCF7"}, "IGROV-1": {"system": "IGROV-1"}, "U-251": {"system": "U-251"}, "RPMI-8226": {"system": "RPMI-8226"}, "T47D": {"system": "T47D"}, "NCI/ADR-RES": {"system": "NCI/ADR-RES"}, "OVCAR-3": {"system": "OVCAR-3"}, "SN12C": {"system": "SN12C"}, "HT-29": {"system": "HT-29"}, "CCRF-CEM": {"system": "CCRF-CEM"}, "MDA-MB-231": {"system": "MDA-MB-231"}, "CAKI-1": {"system": "CAKI-1"}, "HOP-62": {"system": "HOP-62"}, "HL-60": {"system": "HL-60"}, "TK-10": {"system": "TK-10"}, "SF-295": {"system": "SF-295"}, "SK-MEL-28": {"system": "SK-MEL-28"}, "SK-OV-3": {"system": "SK-OV-3"}},
  "note": "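1) Cells in 96-well plates. 2) Compound, 48 h, 5 concentrations. 3) Linear interpolation between surrounding doses. 4) Unreached endpoint = highest concentration. At the GI50, growth is halved.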 Activity calls are given as the source filed them. Rule as the data show it: active = GI50 up to about 1.1 µM and inactive = higher.",
  "data": [
    {"smiles": "CC1OC(OC2C(OC(=O)[C@]34CCC(C)(C)C[C@H]3C3=CC[C@@H]5[C@@]6(C)CC[C@H](OC7OC(CO)C(O)C(O)C7OC7OC(CO)C(O)C(O)C7O)C(C)(C)[C@@H]6CC[C@@]5(C)[C@]3(C)CC4)OCC(O)C2O)C(O)C(OC2OCC(O)C(O)C2O)C1OC1OCC(O)C(OC2OCC(O)C(O)C2O)C1O", "note": "(some centres undefined)", "values": [
      {"measurement": "GI50", "setting": "MDA-MB-435", "value": "2.26 µM (inactive)"},
      {"measurement": "GI50", "setting": "HCC 2998", "value": "2.14 µM (inactive)"},
      {"measurement": "GI50", "setting": "HCT-116", "value": "8.97 µM (inactive)"},
      {"measurement": "GI50", "setting": "HCT-15", "value": 22.7, "unit": "µM"},
      {"measurement": "GI50", "setting": "SW-620", "value": "15.7 µM (inactive)"},
      {"measurement": "GI50", "setting": "NCI-H522", "value": "3.19 µM (inactive)"},
      {"measurement": "GI50", "setting": "UACC-62", "value": "13.5 µM (inactive)"},
      {"measurement": "GI50", "setting": "NCI-H226", "value": "7.05 µM (inactive)"},
      {"measurement": "GI50", "setting": "SF-268", "value": "9.51 µM (inactive)"},
      {"measurement": "GI50", "setting": "786-0", "value": "12.2 µM (inactive)"},
      {"measurement": "GI50", "setting": "HOP-92", "value": "6.84 µM (inactive)"},
      {"measurement": "GI50", "setting": "SR", "value": "5.19 µM (inactive)"},
      {"measurement": "GI50", "setting": "LOX IMVI", "value": "16.2 µM (inactive)"},
      {"measurement": "GI50", "setting": "DU-145", "value": "10.5 µM (inactive)"},
      {"measurement": "GI50", "setting": "OVCAR-4", "value": "10 µM (inactive)"},
      {"measurement": "GI50", "setting": "OVCAR-8", "value": "18 µM (inactive)"},
      {"measurement": "GI50", "setting": "SK-MEL-2", "value": "8.57 µM (inactive)"},
      {"measurement": "GI50", "setting": "COLO 205", "value": "2.77 µM (inactive)"},
      {"measurement": "GI50", "setting": "SK-MEL-5", "value": "9.4 µM (inactive)"},
      {"measurement": "GI50", "setting": "ACHN", "value": "9.4 µM (inactive)"},
      {"measurement": "GI50", "setting": "MOLT-4", "value": "13.2 µM (inactive)"},
      {"measurement": "GI50", "setting": "RXF 393", "value": "16.4 µM (inactive)"},
      {"measurement": "GI50", "setting": "A549", "value": "3.7 µM (inactive)"},
      {"measurement": "GI50", "setting": "K562", "value": "6.55 µM (inactive)"},
      {"measurement": "GI50", "setting": "NCI-H460", "value": "69 µM (inactive)"},
      {"measurement": "GI50", "setting": "A498", "value": "2.24 µM (inactive)"},
      {"measurement": "GI50", "setting": "SF-539", "value": "67.8 µM (inactive)"},
      {"measurement": "GI50", "setting": "PC-3", "value": "11.8 µM (inactive)"},
      {"measurement": "GI50", "setting": "SNB-75", "value": "18.7 µM (inactive)"},
      {"measurement": "GI50", "setting": "UACC-257", "value": "3.78 µM (inactive)"},
      {"measurement": "GI50", "setting": "SNB-19", "value": "16.7 µM (inactive)"},
      {"measurement": "GI50", "setting": "OVCAR-5", "value": "8.55 µM (inactive)"},
      {"measurement": "GI50", "setting": "EKVX", "value": "4.34 µM (inactive)"},
      {"measurement": "GI50", "setting": "M14", "value": "2.42 µM (inactive)"},
      {"measurement": "GI50", "setting": "Hs-578T", "value": "21.4 µM (inactive)"},
      {"measurement": "GI50", "setting": "BT-549", "value": "8.28 µM (inactive)"},
      {"measurement": "GI50", "setting": "NCI-H23", "value": "6.37 µM (inactive)"},
      {"measurement": "GI50", "setting": "Malme-3M", "value": "4.46 µM (inactive)"},
      {"measurement": "GI50", "setting": "UO-31", "value": "2.14 µM (inactive)"},
      {"measurement": "GI50", "setting": "MDA-N", "value": "2.27 µM (inactive)"},
      {"measurement": "GI50", "setting": "KM12", "value": "7.31 µM (inactive)"},
      {"measurement": "GI50", "setting": "MCF7", "value": "7.71 µM (inactive)"},
      {"measurement": "GI50", "setting": "IGROV-1", "value": "19.1 µM (inactive)"},
      {"measurement": "GI50", "setting": "U-251", "value": "18.2 µM (inactive)"},
      {"measurement": "GI50", "setting": "RPMI-8226", "value": "7.69 µM (inactive)"},
      {"measurement": "GI50", "setting": "T47D", "value": "14.7 µM (inactive)"},
      {"measurement": "GI50", "setting": "NCI/ADR-RES", "value": "11 µM (inactive)"},
      {"measurement": "GI50", "setting": "OVCAR-3", "value": "23.4 µM (inactive)"},
      {"measurement": "GI50", "setting": "SN12C", "value": "2.26 µM (inactive)"},
      {"measurement": "GI50", "setting": "HT-29", "value": "4.23 µM (inactive)"},
      {"measurement": "GI50", "setting": "CCRF-CEM", "value": "22.3 µM (inactive)"},
      {"measurement": "GI50", "setting": "MDA-MB-231", "value": "7.6 µM (inactive)"},
      {"measurement": "GI50", "setting": "CAKI-1", "value": "6.67 µM (inactive)"},
      {"measurement": "GI50", "setting": "HOP-62", "value": "14 µM (inactive)"},
      {"measurement": "GI50", "setting": "HL-60", "value": "3.94 µM (inactive)"},
      {"measurement": "GI50", "setting": "TK-10", "value": "13.4 µM (inactive)"},
      {"measurement": "GI50", "setting": "SF-295", "value": "7.62 µM (inactive)"},
      {"measurement": "GI50", "setting": "SK-MEL-28", "value": "2.37 µM (inactive)"},
      {"measurement": "GI50", "setting": "SK-OV-3", "value": "32.2 µM (inactive)"}
    ]}
  ]
}
